ChEMBL document CHEMBL1201862, “PubChem BioAssay data set” (2004)
Active and inactive are the calls of the source.

Experiments:
[1] = target: ADP-ribosylation factor GTPase-activating protein 1 (Rattus norvegicus, UniProt Q62848); assay: Fluorescence polarization-based biochemical high throughput dose response screening assay to identify inhibitors of ADP-ribosylation factor GTPase activating protein 1 (ARFGAP1).; format: functional
[2] = target: T1, RNA-binding protein pos-1 (Caenorhabditis elegans, UniProt G5EF15); assay: inhibitors of POS-1/mex-3 RNA binding, dose response, biochemical, fluorescence polarization (AID 1964);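 note: purified POS-1 fused to maltose binding protein made in E. coli; potency of compounds blocking POS-1 binding to fluorescent RNA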
T1 sequence (G5EF15 whole entry): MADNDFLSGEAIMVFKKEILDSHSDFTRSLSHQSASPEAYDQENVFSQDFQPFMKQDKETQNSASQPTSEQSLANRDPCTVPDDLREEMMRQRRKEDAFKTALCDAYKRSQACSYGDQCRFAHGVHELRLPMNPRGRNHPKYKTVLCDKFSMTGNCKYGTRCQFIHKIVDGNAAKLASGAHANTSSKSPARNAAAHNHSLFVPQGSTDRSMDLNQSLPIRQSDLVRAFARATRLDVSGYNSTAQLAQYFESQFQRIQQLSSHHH

[3] = target: T2, Sentrin-specific protease 1 (Homo sapiens, UniProt Q9P0U3); assay: potency of human SENP1 inhibitors, dose response, biochemical, kinetic FRET (AID 651697); format: functional; details: read-out: IC50_Mean
T2 sequence (Q9P0U3 whole entry, the tested form may be a part): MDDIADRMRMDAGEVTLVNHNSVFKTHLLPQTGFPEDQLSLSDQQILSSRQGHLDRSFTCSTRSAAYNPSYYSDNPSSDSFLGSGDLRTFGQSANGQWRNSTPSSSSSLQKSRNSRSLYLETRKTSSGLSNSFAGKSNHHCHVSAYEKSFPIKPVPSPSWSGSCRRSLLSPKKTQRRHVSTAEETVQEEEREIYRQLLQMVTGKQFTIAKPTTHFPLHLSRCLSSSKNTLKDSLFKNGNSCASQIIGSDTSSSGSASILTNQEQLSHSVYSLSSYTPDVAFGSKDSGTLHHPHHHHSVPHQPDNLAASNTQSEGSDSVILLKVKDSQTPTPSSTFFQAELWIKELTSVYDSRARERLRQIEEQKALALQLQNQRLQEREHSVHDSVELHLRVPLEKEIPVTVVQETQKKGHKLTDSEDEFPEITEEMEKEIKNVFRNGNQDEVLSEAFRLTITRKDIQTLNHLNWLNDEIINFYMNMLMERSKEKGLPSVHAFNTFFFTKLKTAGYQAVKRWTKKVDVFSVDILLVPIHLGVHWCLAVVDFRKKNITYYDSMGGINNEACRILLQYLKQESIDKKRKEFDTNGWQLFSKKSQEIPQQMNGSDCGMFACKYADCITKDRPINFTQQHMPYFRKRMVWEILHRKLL

[4] = target: T2, Sentrin-specific protease 1; assay: Dose response confirmation of small molecule inhibitors of the catalytic domain of the SUMO protease, SENP1 in a FRET assay.; format: functional; details: read-out: IC50_Mean
[5] = target: T3, Zinc finger protein mex-5 (Caenorhabditis elegans, UniProt Q9XUB2); assay: MEX-5/TCR-2 RNA interaction inhibitors, dose response, biochemical, C. elegans, fluorescence polarization (AID 1960)
T3 sequence (Q9XUB2 whole entry): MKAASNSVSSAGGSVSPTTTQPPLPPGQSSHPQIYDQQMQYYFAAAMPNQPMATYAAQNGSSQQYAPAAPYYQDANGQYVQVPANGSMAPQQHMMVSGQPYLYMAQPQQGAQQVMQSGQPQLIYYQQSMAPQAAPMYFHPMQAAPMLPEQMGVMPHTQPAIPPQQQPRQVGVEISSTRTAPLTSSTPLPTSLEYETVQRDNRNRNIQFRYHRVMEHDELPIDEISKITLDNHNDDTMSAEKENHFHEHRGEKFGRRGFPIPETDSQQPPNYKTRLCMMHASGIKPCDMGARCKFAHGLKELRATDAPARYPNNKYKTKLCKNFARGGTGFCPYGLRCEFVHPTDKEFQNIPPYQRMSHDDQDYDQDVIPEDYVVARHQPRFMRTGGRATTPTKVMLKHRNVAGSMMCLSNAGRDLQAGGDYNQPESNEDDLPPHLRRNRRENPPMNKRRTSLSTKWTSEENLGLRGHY

[6] = miR-122 activators in hepatoma reporter cells, dose response, cell-based, Huh7 psiCHECK-miR122, Renilla luciferase, cherry-picked (AID 651956); format: functional;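 note: huh7 hepatoma cells stably carrying a psiCHECK-2 miR-122 sensor plasmid; renilla luciferase signal reporting endogenous miR-122 activity after 48 h compound exposure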
Paired box protein Pax-8 = Paired box protein Pax-8 (Homo sapiens, UniProt Q06710); assay: inhibitors of PAX8-driven TPO luciferase reporter, dose response, RMG-I cells, cherry-pick (AID 687027); format: functional, cell-based;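 note: luciferase reporter driven by Pax8 target thyroperoxidase promoter measured by SteadyGlo luminescence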
Chain of Paired box protein Pax-8 (Q06710 whole entry): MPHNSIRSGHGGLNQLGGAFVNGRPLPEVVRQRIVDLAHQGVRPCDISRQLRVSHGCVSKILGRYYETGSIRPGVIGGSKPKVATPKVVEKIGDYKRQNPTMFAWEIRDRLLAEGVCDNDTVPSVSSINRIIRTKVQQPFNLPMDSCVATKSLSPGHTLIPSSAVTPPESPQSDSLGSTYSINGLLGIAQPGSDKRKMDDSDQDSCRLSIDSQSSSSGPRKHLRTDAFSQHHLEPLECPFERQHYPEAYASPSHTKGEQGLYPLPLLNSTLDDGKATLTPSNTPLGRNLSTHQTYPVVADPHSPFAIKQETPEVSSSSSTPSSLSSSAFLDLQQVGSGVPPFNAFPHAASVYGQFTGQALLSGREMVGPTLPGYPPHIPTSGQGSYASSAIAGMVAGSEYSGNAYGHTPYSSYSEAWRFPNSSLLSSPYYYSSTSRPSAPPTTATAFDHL

[7] = lymphoblastoid cell cytotoxicity, dose response, cytotoxicity control, plate reader, dry powder, set 2 (AID 624367); format: functional
[8] = inhibitors of TNFa-stimulated NF-kB luciferase reporter, dose response, selectivity assay for EBV LMP1 NF-kB inhibitor project, HEK293 LMP1 reporter cells, dry powder, set 2 (AID 624369); format: functional
[9] = A2780 ovarian cancer cell cytotoxicity, dose response, cytotoxicity control, plate reader, dry powder samples (AID 743046); format: functional, cell-based
[10] = target: Matrix metalloproteinase-14 (Homo sapiens, UniProt P50281); assay: Dose Response confirmation of uHTS hits for a small molecule inhibitors of MT1-MMP activation in a fluorescence assay set 1.; format: functional
[11] = target: T4, Apoptotic protease-activating factor 1 (Homo sapiens, UniProt O14727); assay: SAR analysis of small molecule Activators of Apaf-1 in a Fluorescent assay.; format: functional; details: read-out: EC50_Mean;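 note: caspase-3 cleavage of fluorogenic Rh110 DEVD substrate downstream of apoptosome activation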
T4 sequence (O14727 whole entry): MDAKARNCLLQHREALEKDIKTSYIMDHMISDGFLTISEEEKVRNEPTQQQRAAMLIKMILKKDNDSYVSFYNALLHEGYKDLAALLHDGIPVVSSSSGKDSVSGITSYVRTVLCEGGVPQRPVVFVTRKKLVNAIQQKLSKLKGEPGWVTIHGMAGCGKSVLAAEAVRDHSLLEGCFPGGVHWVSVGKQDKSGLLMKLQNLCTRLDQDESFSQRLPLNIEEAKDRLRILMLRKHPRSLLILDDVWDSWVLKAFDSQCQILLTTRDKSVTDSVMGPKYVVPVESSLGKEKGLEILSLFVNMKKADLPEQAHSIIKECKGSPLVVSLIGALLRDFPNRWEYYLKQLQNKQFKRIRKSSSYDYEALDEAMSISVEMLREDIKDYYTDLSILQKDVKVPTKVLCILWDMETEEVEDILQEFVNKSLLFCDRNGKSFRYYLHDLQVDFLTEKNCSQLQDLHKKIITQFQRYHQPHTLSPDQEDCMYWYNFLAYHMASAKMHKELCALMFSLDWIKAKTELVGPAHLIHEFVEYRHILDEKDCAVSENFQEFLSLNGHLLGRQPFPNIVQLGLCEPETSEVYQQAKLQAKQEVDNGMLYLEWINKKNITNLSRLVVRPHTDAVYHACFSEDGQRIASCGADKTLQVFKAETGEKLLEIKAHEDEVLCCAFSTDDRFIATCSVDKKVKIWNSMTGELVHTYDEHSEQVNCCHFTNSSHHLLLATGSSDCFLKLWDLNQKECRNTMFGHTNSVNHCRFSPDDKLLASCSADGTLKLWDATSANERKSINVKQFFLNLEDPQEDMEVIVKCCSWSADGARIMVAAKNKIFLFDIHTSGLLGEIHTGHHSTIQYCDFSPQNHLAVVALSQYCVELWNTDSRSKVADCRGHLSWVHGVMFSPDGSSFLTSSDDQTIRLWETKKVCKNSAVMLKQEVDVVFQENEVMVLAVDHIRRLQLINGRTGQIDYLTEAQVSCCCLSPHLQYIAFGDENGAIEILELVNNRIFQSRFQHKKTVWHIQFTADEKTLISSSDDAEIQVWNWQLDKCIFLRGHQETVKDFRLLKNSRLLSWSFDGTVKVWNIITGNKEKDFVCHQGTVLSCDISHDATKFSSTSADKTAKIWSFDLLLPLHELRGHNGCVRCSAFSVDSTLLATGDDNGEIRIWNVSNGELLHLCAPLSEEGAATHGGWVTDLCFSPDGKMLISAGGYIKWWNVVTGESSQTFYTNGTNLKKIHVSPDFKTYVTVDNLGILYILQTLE

Chain of ADP-ribosylation factor GTPase-activating protein 1 (Q62848 whole entry, the tested form may be a part): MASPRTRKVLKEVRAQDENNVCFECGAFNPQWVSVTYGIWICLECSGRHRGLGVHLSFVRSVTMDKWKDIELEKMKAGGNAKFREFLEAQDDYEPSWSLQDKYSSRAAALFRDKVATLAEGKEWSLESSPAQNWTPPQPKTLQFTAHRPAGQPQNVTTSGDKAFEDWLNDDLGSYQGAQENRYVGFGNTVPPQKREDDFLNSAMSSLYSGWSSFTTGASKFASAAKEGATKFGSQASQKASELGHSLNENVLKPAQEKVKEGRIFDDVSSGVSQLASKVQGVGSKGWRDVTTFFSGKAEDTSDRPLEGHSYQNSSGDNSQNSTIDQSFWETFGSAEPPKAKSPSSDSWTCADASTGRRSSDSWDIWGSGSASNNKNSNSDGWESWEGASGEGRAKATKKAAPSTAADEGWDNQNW

O/N=C\c1ccc2noc(-c3ccc(Cl)cc3)c2c1
IC50 [1]: 50.7 µM (inactive)

CC(C)CNC(=O)c1ccc(C2SCC(=O)N2Cc2ccccc2)cc1 (configuration not stated)
EC50 [2]: > 300 µM (not active) | IC50 [3]: 21.5 µM (inactive) | IC50 [4]: 16.7 µM (active) | EC50 [5]: > 300 µM (not active)

CCCC(NS(=O)(=O)c1ccc(Br)cc1)C(=O)O (configuration not stated)
AC50 [6]: 1.68 µM (active)

O=C(Nc1ccc(C(F)(F)F)cc1)Nc1ccc2c(c1)[C@H]1C[C@H](CC(=O)N3CCc4ccccc4C3)O[C@H](CO)[C@H]1O2
AC50 (Paired box protein Pax-8): 7.26 µM (active) | AbsAC35 [7]: 42.44 µM | AbsAC35 [8]: 66.25 µM | AC50 [9]: 57.4 µM (active)

CCOC(=O)C1=C(C)N=c2s/c(=C\c3ccc(OC(C)=O)c(OCC)c3)c(=O)n2C1/C=C/c1ccccc1 (configuration not stated)
IC50 [10]: 6 µM (active)

O=C(NCCCN1CCOCC1)C1CC(c2ccc(F)cc2)=NO1 (configuration not stated)
EC50 [11]: > 100 µM (inactive)
